From the supplement of paper PMC13207355
Counter-ions that a name gives are not always drawn.

Legend:
Settings in all cases: exposure time: 72 h
E13 [1] = patient-derived glioblastoma stem cells of classical subtype; test: surviving fraction (nuclei count normalised to DMSO); higher = more cells surviving (less toxic)
E21 [2] = patient-derived glioblastoma stem cells of mesenchymal subtype; test: as above
E28 [3] = patient-derived glioblastoma stem cells of classical subtype; test: as above
E31 [4] = patient-derived glioblastoma stem cells of proneural subtype; test: as above
E34 [5] = patient-derived glioblastoma stem cells of proneural subtype; test: as above
E57 [6] = patient-derived glioblastoma stem cells of mesenchymal subtype; test: as above
FT3469 [7] = normal neural stem cell line; test: as above
E13 [8] = test: phenotypic distance (Euclidean, principal components) from DMSO controls (arbitrary units); higher = stronger morphological change
E21 [9] = test: as above
E28 [10] = test: as above
E31 [11] = test: as above
E34 [12] = test: as above
E57 [13] = test: as above
FT3469 [14] = test: as above
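For phenotypic distance (Euclidean, principal components) from DMSO controls in this document: cell Painting imaging in 384-well plates, CellProfiler features reduced to at least 20 principal components, Euclidean distance versus same-plate DMSO vehicle wells (0.1% v/v), median over six images per well.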
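For surviving fraction (nuclei count normalised to DMSO) in this document: nuclei counted by high-content imaging of Hoechst-stained cells in laminin-coated 384-well plates, relative to 0.1% DMSO vehicle wells, with staurosporine as cell-death control.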

COC(=O)[C@@H]1[C@H]2C[C@H]3c4[nH]c5ccccc5c4CCN3C[C@@H]2CC[C@@H]1O [Yohimbine hydrochloride]
Settings	phenotypic distance	surviving fraction
E13 [1], 4.11523 nM	–	0.88
E13 [1], 12.34567901 nM	–	0.94
E13 [1], 37.037 nM	–	1.03
E13 [1], 111.1111111 nM	–	0.984
E13 [1], 333.333 nM	–	1.01
E13 [1], 1000 nM	–	0.876
E13 [1], 3000 nM	–	0.986
E13 [8], 4.11523 nM	0.924	–
E13 [8], 12.34567901 nM	0.56	–
E13 [8], 37.037 nM	0.624	–
E13 [8], 111.1111111 nM	0.517	–
E13 [8], 333.333 nM	0.539	–
E13 [8], 1000 nM	0.622	–
E13 [8], 3000 nM	0.73	–
E21 [2], 4.11523 nM	–	0.896
E21 [2], 12.34567901 nM	–	1.01
E21 [2], 37.037 nM	–	0.994
E21 [2], 111.1111111 nM	–	1.06
E21 [2], 333.333 nM	–	1.03
E21 [2], 1000 nM	–	1.01
E21 [2], 3000 nM	–	1.02
E21 [9], 4.11523 nM	0.527	–
E21 [9], 12.34567901 nM	0.576	–
E21 [9], 37.037 nM	0.624	–
E21 [9], 111.1111111 nM	0.545	–
E21 [9], 333.333 nM	0.676	–
E21 [9], 1000 nM	0.456	–
E21 [9], 3000 nM	0.417	–
E28 [3], 4.11523 nM	–	1.01
E28 [3], 12.34567901 nM	–	0.965
E28 [3], 37.037 nM	–	1.04
E28 [3], 111.1111111 nM	–	0.945
E28 [3], 333.333 nM	–	1.15
E28 [3], 1000 nM	–	0.948
E28 [3], 3000 nM	–	0.948
E28 [10], 4.11523 nM	0.456	–
E28 [10], 12.34567901 nM	0.689	–
E28 [10], 37.037 nM	1.18	–
E28 [10], 111.1111111 nM	0.639	–
E28 [10], 333.333 nM	0.696	–
E28 [10], 1000 nM	0.645	–
E28 [10], 3000 nM	0.333	–
E31 [4], 4.11523 nM	–	0.959
E31 [4], 12.34567901 nM	–	0.999
E31 [4], 37.037 nM	–	1.18
E31 [4], 111.1111111 nM	–	0.859
E31 [4], 333.333 nM	–	0.951
E31 [4], 1000 nM	–	1.07
E31 [4], 3000 nM	–	0.928
E31 [11], 4.11523 nM	0.598	–
E31 [11], 12.34567901 nM	0.58	–
E31 [11], 37.037 nM	0.688	–
E31 [11], 111.1111111 nM	0.658	–
E31 [11], 333.333 nM	0.454	–
E31 [11], 1000 nM	0.521	–
E31 [11], 3000 nM	0.828	–
E34 [5], 4.11523 nM	–	0.932
E34 [5], 12.34567901 nM	–	0.932
E34 [5], 37.037 nM	–	0.912
E34 [5], 111.1111111 nM	–	1.05
E34 [5], 333.333 nM	–	0.932
E34 [5], 1000 nM	–	0.959
E34 [5], 3000 nM	–	0.892
E34 [12], 4.11523 nM	0.815	–
E34 [12], 12.34567901 nM	0.668	–
E34 [12], 37.037 nM	0.596	–
E34 [12], 111.1111111 nM	0.623	–
E34 [12], 333.333 nM	0.866	–
E34 [12], 1000 nM	0.744	–
E34 [12], 3000 nM	0.647	–
E57 [6], 4.11523 nM	–	1.03
E57 [6], 12.34567901 nM	–	1.07
E57 [6], 37.037 nM	–	0.994
E57 [6], 111.1111111 nM	–	0.981
E57 [6], 333.333 nM	–	0.979
E57 [6], 1000 nM	–	0.979
E57 [6], 3000 nM	–	1.01
E57 [13], 4.11523 nM	0.343	–
E57 [13], 12.34567901 nM	0.457	–
E57 [13], 37.037 nM	0.558	–
E57 [13], 111.1111111 nM	0.582	–
E57 [13], 333.333 nM	0.386	–
E57 [13], 1000 nM	0.804	–
E57 [13], 3000 nM	0.576	–
FT3469 [7], 4.11523 nM	–	0.957
FT3469 [7], 12.34567901 nM	–	1.05
FT3469 [7], 37.037 nM	–	0.936
FT3469 [7], 111.1111111 nM	–	0.853
FT3469 [7], 333.333 nM	–	1.04
FT3469 [7], 1000 nM	–	0.975
FT3469 [7], 3000 nM	–	1.01
FT3469 [14], 4.11523 nM	0.568	–
FT3469 [14], 12.34567901 nM	0.613	–
FT3469 [14], 37.037 nM	0.433	–
FT3469 [14], 111.1111111 nM	1.24	–
FT3469 [14], 333.333 nM	0.516	–
FT3469 [14], 1000 nM	0.514	–
FT3469 [14], 3000 nM	0.55	–

Nc1ccn([C@H]2CC[C@@H](CO)O2)c(=O)n1 [Zalcitabine]
Settings	phenotypic distance	surviving fraction
E13 [1], 4.1 nM	–	0.88
E13 [1], 12.3 nM	–	1.02
E13 [1], 37 nM	–	1.01
E13 [1], 111.1 nM	–	0.953
E13 [1], 333.3 nM	–	0.94
E13 [1], 1000 nM	–	1.01
E13 [1], 3000 nM	–	0.913
E13 [8], 4.1 nM	0.723	–
E13 [8], 12.3 nM	0.719	–
E13 [8], 37 nM	0.578	–
E13 [8], 111.1 nM	0.722	–
E13 [8], 333.3 nM	0.483	–
E13 [8], 1000 nM	0.498	–
E13 [8], 3000 nM	0.729	–
E21 [2], 4.1 nM	–	0.917
E21 [2], 12.3 nM	–	0.894
E21 [2], 37 nM	–	1.08
E21 [2], 111.1 nM	–	0.99
E21 [2], 333.3 nM	–	0.9
E21 [2], 1000 nM	–	0.987
E21 [2], 3000 nM	–	0.979
E21 [9], 4.1 nM	0.578	–
E21 [9], 12.3 nM	0.976	–
E21 [9], 37 nM	0.36	–
E21 [9], 111.1 nM	0.783	–
E21 [9], 333.3 nM	0.577	–
E21 [9], 1000 nM	0.331	–
E21 [9], 3000 nM	0.684	–
E28 [3], 4.1 nM	–	1.04
E28 [3], 12.3 nM	–	1.04
E28 [3], 37 nM	–	0.97
E28 [3], 111.1 nM	–	1.13
E28 [3], 333.3 nM	–	1.01
E28 [3], 1000 nM	–	1.12
E28 [3], 3000 nM	–	0.87
E28 [10], 4.1 nM	0.369	–
E28 [10], 12.3 nM	0.351	–
E28 [10], 37 nM	0.756	–
E28 [10], 111.1 nM	0.552	–
E28 [10], 333.3 nM	0.598	–
E28 [10], 1000 nM	0.381	–
E28 [10], 3000 nM	0.783	–
E31 [4], 4.1 nM	–	0.933
E31 [4], 12.3 nM	–	1.11
E31 [4], 37 nM	–	0.978
E31 [4], 111.1 nM	–	1.13
E31 [4], 333.3 nM	–	0.919
E31 [4], 1000 nM	–	0.885
E31 [4], 3000 nM	–	0.972
E31 [11], 4.1 nM	0.62	–
E31 [11], 12.3 nM	0.852	–
E31 [11], 37 nM	0.398	–
E31 [11], 111.1 nM	0.47	–
E31 [11], 333.3 nM	0.46	–
E31 [11], 1000 nM	0.667	–
E31 [11], 3000 nM	0.528	–
E34 [5], 4.1 nM	–	0.869
E34 [5], 12.3 nM	–	0.954
E34 [5], 37 nM	–	1.05
E34 [5], 111.1 nM	–	0.887
E34 [5], 333.3 nM	–	0.896
E34 [5], 1000 nM	–	0.977
E34 [5], 3000 nM	–	0.802
E34 [12], 4.1 nM	0.915	–
E34 [12], 12.3 nM	0.593	–
E34 [12], 37 nM	0.379	–
E34 [12], 111.1 nM	0.902	–
E34 [12], 333.3 nM	1.02	–
E34 [12], 1000 nM	0.999	–
E34 [12], 3000 nM	0.863	–
E57 [6], 4.1 nM	–	1.06
E57 [6], 12.3 nM	–	0.945
E57 [6], 37 nM	–	0.991
E57 [6], 111.1 nM	–	1.09
E57 [6], 333.3 nM	–	0.982
E57 [6], 1000 nM	–	1.02
E57 [6], 3000 nM	–	1.05
E57 [13], 4.1 nM	1.83	–
E57 [13], 12.3 nM	0.448	–
E57 [13], 37 nM	0.547	–
E57 [13], 111.1 nM	0.703	–
E57 [13], 333.3 nM	0.624	–
E57 [13], 1000 nM	0.55	–
E57 [13], 3000 nM	0.703	–
FT3469 [7], 4.1 nM	–	1.11
FT3469 [7], 12.3 nM	–	1.03
FT3469 [7], 37 nM	–	0.953
FT3469 [7], 111.1 nM	–	1.1
FT3469 [7], 333.3 nM	–	1.02
FT3469 [7], 1000 nM	–	1.11
FT3469 [7], 3000 nM	–	0.989
FT3469 [14], 4.1 nM	3.61	–
FT3469 [14], 12.3 nM	0.392	–
FT3469 [14], 37 nM	0.547	–
FT3469 [14], 111.1 nM	0.849	–
FT3469 [14], 333.3 nM	0.603	–
FT3469 [14], 1000 nM	0.632	–
FT3469 [14], 3000 nM	0.569	–
